For one data set, the target named is T1, ACK1 (Homo sapiens, UniProt Q07912).
T1 construct: purchased Reaction Biology Corporation
The data set can be described thus: Kinase screening, HotSpot assay (Reaction Biology). The format is biochemical. The method, then: (§1) Kinase screening was performed using a “HotSpot” assay platform method by Reaction Biology Corporation. The reaction buffer used herein contained 20 mM HEPES (pH 7.5), 10 mM MgCl2, 1 mM EGTA, 0.02% Brij35, 0.02 mg/mL BSA, 0.1 mM Na3VO4, 2 mM DTT and 1% DMSO. The required cofactors were added in accordance with the kinase reaction. Freshly made buffer and cofactors were added at a concentration of 20 μM during the selected enzyme reaction. A solution of the test compound in dimethylsulfoxide (DMSO) was added at a suitable concentration to this solution. In order to initiate reaction, […] (specific activity […]) was added and incubated at room temperature for 2 hours. The test compound was screened at a starting concentration of 20 μM in a 10-dose IC50 mode. IC50 of Staurosporine used as a control drug was obtained at a starting concentration of 20 μM in a 10-dose IC50 mode.

The next data set deals with T2, JAK1 (Homo sapiens, UniProt P23458).
T2 construct: purchased Reaction Biology Corporation
T2 sequence (P23458 whole entry): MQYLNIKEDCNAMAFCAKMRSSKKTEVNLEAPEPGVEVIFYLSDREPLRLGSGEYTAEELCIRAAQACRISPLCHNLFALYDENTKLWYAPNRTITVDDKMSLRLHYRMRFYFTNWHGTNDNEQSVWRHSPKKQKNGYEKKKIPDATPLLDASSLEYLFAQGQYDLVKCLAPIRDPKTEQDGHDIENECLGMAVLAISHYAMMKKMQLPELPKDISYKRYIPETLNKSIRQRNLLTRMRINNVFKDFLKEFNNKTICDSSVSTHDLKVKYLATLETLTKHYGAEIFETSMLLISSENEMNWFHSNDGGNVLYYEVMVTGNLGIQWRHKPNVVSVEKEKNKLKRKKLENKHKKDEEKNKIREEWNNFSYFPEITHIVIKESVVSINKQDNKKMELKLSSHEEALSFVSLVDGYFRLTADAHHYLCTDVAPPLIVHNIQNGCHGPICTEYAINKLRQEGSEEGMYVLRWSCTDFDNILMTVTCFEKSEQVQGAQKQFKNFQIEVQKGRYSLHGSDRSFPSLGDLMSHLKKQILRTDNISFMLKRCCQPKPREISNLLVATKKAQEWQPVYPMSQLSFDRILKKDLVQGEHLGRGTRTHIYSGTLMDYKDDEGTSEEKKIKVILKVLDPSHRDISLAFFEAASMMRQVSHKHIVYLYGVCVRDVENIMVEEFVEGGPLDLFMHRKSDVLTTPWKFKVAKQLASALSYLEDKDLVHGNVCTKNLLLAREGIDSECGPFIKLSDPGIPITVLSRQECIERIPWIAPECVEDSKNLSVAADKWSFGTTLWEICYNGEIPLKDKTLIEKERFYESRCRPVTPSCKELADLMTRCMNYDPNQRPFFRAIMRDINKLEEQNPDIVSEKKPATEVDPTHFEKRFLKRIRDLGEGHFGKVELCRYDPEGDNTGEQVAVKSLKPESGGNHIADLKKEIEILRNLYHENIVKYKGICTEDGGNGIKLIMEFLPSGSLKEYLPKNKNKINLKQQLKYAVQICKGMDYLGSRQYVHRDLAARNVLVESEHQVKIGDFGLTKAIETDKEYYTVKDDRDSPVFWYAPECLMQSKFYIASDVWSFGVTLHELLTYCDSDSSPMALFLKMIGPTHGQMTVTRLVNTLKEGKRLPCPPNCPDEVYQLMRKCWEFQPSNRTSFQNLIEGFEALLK
The data set can be described thus: Kinase screening, HotSpot assay (Reaction Biology). The format is biochemical. On the procedure:
as §1

The target in another data set is T3, JAK2 (Homo sapiens, UniProt O60674).
T3 construct: purchased Reaction Biology Corporation
T3 sequence (O60674 whole entry): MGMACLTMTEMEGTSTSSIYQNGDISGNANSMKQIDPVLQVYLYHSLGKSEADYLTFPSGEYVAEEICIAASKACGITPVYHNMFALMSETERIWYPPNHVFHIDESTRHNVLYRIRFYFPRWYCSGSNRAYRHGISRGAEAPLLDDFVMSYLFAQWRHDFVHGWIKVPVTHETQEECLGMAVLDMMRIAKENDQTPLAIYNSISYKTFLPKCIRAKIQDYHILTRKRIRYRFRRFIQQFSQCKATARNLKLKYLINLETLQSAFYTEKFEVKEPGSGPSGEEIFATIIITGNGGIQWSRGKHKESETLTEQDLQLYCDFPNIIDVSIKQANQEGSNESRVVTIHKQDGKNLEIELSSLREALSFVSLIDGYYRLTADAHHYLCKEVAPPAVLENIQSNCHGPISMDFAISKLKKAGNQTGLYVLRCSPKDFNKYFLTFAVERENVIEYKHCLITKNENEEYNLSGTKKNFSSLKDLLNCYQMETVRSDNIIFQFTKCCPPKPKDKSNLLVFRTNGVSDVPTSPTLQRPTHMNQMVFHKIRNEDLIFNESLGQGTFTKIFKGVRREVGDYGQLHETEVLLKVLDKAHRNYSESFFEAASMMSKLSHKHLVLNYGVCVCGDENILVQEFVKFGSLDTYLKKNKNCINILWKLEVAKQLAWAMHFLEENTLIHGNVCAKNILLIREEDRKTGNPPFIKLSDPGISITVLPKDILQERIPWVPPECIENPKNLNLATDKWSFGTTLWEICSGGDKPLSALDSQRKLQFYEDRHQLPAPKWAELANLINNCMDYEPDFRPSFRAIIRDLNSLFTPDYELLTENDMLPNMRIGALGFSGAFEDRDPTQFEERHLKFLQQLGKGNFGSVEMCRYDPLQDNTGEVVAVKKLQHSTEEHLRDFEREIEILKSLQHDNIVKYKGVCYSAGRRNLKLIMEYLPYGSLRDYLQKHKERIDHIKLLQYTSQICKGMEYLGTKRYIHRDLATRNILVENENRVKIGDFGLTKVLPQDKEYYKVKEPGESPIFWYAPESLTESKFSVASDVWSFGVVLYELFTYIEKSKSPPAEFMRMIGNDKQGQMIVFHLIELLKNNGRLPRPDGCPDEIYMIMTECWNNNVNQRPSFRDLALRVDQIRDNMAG
The data set can be described thus: Kinase screening, HotSpot assay (Reaction Biology). The format is biochemical. On the procedure: as §1

The next data set deals with T4, JAK2(V617F) (Homo sapiens, UniProt O60674, V617F).
T4 construct: purchased Reaction Biology Corporation
T4 sequence (O60674 whole entry V617F): as the sequence (O60674 whole entry) above, with V617F counted along it
The data set can be described thus: Kinase screening, HotSpot assay (Reaction Biology). The format is biochemical. On the procedure: as §1

Another data set addresses T5, FLT3 (Homo sapiens, UniProt P36888).
T5 construct: purchased Reaction Biology Corporation
T5 sequence (P36888 27-993): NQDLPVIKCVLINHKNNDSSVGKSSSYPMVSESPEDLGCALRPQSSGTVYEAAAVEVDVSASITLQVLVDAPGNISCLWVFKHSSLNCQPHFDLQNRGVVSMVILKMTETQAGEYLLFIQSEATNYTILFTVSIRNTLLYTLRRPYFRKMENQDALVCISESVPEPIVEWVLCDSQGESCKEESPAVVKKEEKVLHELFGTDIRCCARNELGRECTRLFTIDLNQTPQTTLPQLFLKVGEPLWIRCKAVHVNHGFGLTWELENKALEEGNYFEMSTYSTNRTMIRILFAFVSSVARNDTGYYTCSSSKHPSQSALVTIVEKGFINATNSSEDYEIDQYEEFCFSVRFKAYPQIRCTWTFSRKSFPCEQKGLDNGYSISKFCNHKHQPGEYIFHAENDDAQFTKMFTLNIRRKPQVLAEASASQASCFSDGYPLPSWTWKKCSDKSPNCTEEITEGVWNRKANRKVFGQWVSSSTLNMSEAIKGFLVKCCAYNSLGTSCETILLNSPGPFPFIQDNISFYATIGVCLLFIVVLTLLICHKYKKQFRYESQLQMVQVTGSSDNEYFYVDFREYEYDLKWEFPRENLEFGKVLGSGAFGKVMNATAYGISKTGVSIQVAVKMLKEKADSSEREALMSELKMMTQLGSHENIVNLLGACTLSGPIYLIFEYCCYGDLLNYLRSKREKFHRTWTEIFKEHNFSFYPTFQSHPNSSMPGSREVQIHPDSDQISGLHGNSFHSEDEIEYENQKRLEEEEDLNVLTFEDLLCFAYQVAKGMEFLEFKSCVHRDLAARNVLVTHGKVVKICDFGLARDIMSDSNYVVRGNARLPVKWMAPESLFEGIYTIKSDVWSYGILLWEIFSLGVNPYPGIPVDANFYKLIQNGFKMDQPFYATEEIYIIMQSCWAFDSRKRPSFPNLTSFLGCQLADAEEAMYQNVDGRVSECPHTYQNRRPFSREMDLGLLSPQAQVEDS
The data set can be described thus: Kinase screening, HotSpot assay (Reaction Biology). The format is biochemical. On the procedure:
Kinase screening was performed using a “HotSpot” assay platform method by Reaction Biology Corporation. The reaction buffer used herein contained 20 mM HEPES (pH 7.5), 10 mM MgCl2, 1 mM EGTA, 0.02% Brij35, 0.02 mg/mL BSA, 0.1 mM Na3VO4, 2 mM DTT and 1% DMSO. The required cofactors were added in accordance with the kinase reaction. Freshly made buffer and cofactors were added at a concentration of 20 μM during the selected enzyme reaction. A solution of the test compound in dimethylsulfoxide (DMSO) was added at a suitable concentration to this solution.

The subject of the next data set is VERO. The data set can be described thus: Cytotoxicity test (cell counting kit-8). The format is cell-based, African green monkey. The note with it: Chlorocebus sabaeus, WST-8. An excerpt:
Cell counting kit-8 assay is a general test method for identifying cell viability using a pale yellow tetrazolium salt called “WST-8”. WST-8, which is soluble in water, is degraded by a dehydrogenase present in the cells, forming orange formazan. Formazan dye is formed by dehydrogenase activity proportional to the number of viable cells, and thus can be used as an indicator for cell viability. The Hill equation of Graphpad Prism was used for analysis.

The target of a further data set is hERG K+ channel (Homo sapiens, UniProt Q12809). The data set can be described thus: hERG K+ channel binding assay (fluorescence polarization). The method, then: The hERG tracer and membranes were dissolved at room temperature before use, the tracer and hERG assay buffer were diluted at 1:62.5 and a test substance was diluted to 40 μM with assay buffer. 5 μL of the test substance, a positive control (astemizole or E-4031) and a negative control (DMSO) were dispensed into a 384-well plate, the membranes are dispensed at 10 μL using a multi-pipette and 5 μl of the tracer was dispensed. The light was blocked and incubated at 25° C. for 2 to 3 hours. Then, polarization was measured using a TECAN plate reader (Infinite M1000 pro).
Chain of hERG K+ channel (Q12809 whole entry): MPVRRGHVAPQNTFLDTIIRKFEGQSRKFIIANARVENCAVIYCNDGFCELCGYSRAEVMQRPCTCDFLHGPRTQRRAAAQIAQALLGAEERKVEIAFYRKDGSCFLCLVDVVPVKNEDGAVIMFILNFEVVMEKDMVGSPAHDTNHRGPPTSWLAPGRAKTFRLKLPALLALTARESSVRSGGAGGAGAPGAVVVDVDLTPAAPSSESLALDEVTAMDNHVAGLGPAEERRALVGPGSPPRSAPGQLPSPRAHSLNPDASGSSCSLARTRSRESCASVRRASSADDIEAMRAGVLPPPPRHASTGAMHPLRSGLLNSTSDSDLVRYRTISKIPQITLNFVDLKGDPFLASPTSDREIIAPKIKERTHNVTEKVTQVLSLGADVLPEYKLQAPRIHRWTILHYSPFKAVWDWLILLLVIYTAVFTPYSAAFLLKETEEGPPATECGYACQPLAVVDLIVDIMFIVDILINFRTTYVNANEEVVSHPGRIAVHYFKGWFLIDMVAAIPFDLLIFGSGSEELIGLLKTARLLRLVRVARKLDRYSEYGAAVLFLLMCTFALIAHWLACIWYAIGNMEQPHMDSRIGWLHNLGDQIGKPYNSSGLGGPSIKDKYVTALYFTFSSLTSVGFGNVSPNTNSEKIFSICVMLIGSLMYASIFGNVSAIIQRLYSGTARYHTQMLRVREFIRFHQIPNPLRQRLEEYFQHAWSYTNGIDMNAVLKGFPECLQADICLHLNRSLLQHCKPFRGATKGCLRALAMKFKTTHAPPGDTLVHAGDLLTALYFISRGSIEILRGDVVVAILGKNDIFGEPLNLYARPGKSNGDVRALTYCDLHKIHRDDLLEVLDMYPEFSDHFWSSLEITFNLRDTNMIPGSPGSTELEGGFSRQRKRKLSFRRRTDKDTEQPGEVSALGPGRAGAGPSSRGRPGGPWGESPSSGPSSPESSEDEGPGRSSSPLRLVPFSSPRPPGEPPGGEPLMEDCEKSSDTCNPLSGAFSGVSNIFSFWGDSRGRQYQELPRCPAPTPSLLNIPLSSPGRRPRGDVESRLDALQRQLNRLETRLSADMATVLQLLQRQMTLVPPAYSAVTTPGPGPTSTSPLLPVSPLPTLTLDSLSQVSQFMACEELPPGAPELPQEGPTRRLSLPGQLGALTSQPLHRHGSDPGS

The next data set deals with human CYP isozymes. The data set can be described thus: CYP450 assay, summary over human CYP isozymes. The format is in vitro ADME. The following applies: 10 μM. The method, then: Compound 5 and a positive control stock solution were diluted with water to prepare a 40 μM working solution, and a solution containing an enzyme and a substrate was prepared using water and buffer. Compound 5/control/positive control and the solution were each dispensed on a 96-well and preincubated at 37° C. for 10 minutes. The resulting substance was reacted with NADPH for 20 minutes at 37° C. and a detection reagent was added to terminate the reaction. After stabilization at room temperature for 20 minutes, a luminescence signal was measured.

T1 sequence (Q07912 whole entry): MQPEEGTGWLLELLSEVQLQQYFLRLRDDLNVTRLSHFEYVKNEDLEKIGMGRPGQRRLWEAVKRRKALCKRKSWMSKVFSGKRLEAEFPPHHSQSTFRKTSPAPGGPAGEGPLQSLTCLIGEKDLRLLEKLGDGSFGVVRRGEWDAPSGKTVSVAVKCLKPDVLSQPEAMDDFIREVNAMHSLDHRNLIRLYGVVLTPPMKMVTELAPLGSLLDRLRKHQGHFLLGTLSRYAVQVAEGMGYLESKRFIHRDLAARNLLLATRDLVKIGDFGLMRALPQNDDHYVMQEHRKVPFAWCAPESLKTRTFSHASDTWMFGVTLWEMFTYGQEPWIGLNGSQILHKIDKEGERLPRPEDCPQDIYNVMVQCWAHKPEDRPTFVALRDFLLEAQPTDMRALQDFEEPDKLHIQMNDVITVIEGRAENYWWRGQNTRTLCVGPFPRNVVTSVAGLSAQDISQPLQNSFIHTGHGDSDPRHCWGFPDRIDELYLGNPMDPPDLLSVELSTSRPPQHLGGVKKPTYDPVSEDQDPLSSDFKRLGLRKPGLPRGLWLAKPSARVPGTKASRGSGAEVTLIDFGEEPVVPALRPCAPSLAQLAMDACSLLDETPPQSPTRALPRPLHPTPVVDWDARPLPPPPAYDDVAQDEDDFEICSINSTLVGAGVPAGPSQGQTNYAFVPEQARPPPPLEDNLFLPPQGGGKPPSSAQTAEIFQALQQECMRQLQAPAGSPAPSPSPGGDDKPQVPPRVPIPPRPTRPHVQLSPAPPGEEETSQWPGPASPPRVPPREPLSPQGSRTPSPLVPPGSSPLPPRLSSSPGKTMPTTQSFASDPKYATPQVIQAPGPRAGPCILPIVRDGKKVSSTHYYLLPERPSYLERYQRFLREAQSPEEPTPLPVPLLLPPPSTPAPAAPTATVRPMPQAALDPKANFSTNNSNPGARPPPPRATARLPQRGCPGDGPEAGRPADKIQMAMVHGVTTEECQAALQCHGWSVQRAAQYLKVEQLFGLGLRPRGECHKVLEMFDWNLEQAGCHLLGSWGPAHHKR

A word on the IC50: it is the point on the concentration scale where inhibition reaches its midpoint. A low value points to inhibition by little substance. Consider `Clc1cnc(Nc2ccc(OCCN3CCCC3)cc2)nc1NCc1ccco1` [Compound 5, 5-chloro-4-(furan-2-yl)methylamino-2-[4-{2-(pyrrolidin-1-yl)ethoxy}phenylamino]pyrimidine], for which the IC50 on ACK1 came out at 51.3 nM; against JAK1, 16.1 nM; against JAK2 it was 8.85 nM; against JAK2(V617F) it was 25.6 nM; against FLT3, 2.87 nM; with VERO, 19.7 µM. This molecule also displayed an IC50 on hERG K+ channel (concentrations 0.01, 0.1, 1, 2, 5, 10, 20, 50 μM) of 15200 nM. For the same molecule, the “hERG K+ channel binding as indicator of toxicity in the heart, conclusion” value on hERG K+ channel is given as “stable in the heart”. In the data set with human CYP isozymes, the “CYP inhibition conclusion (more than 50% inhibition needs attention)” value was “stable”.

For the origin of these results see US10683282B2, “Multi-substituted pyrimidine derivatives with excellent kinase inhibitory activities” (KOREA INSTITUTE OF SCIENCE AND TECHNOLOGY, priority 2018, dated 2020).
